Columns and labels:
[1] = test system: Molt-4 human leukemic T-cells; assay: In vitro photosensitizing efficacy in Molt-4 cells (MTT); assay type: cell-based; conditions: Molt-4 cells; for effect of free lactose on PDT efficacy of the photosensitizer: photosensitizer with lactose in a ratio of 1:100, without washing
Description: Both cell lines are known to have some expression for Galectin-1 ([…]., Baum, L. G. and Brewer, C. F., Multivalent Protein-carbohydrate Interactions. A New […] for Super Molecular Assembly and Signal Transduction, Biochemistry, 40:3009-3015, 2001). The Molt-4 cells were grown in RPMI 1640 5% FCS (Fetal calf serum) in 100% humidity with 5% CO2. Cells were transferred to phenol red free (PRF) RPMI 1640 media with 1% FCS and plated at 2.5×10^4 cells/well. After 3 hours incubation in the dark, the cells were washed once with PBS and re-suspended in prf RPMI 1640 with 1% FCS. These cells were then illuminated with a […] Quartz Halogen Lamp with IR and bandpass dichroic filters to allow light between 400 nm-700 nm, at a dose rate of 16 mW/cm^2 at 695 nm. The RIF tumor cells were grown in alpha-DMEM with 10% fetal calf serum, penicillin and streptomycin. Cells were maintained in 5% CO2, 95% air and 100% humidity. […] After overnight incubation to allow the cells to attach the photosensitizers 14 were individually added at variable concentrations. After a 3 hr incubation in the dark at 37° C., the cells were washed once with PBS, then irradiated with the same light source as above (Molt-4 procedure), and the optimal cell kill was obtained at a concentration of 1.0 μM. After PDT the cells were washed once and placed in complete media and incubated for 48 hrs. […] Louis, Mo.) was added to each well (Kessel, D., Luo, Y., Photodynamic Therapy: A Mitochondrial Inducer of Apoptosis, Cell Death Differ. 6:28-35, 1999; MacDonald, I., Morgan, […]., Litchfield, D. J. Dougherty, T. J., Subcellular Localization Patterns and their Relationship to Photodynamic Activity of Pyropheophorbide-a Derivatives, Photochem. Photobiol., 70, 789-997, 1999). After 4 hr incubation at 37° C. the MTT+media were removed and 100 μl DMSO was added to solubilize the formazin crystals. The 96-well plate was read on a microtiter plate reader (Miles Inc. Titertek Multiscan Plus MK II) at an absorbance of 560 nm. The results were plotted as percent survival of the corresponding dark (drug no light) control for each compound tested. Each data point represents the mean from 3 separate experiments, and the error bars are the standard deviation. Each experiment was done with 5 replicate wells. […] The cells were then washed once with phosphate buffer saline (PBS), carbohydrate conjugates were then added, and the cells were again incubated for an additional 3 hrs. After treating with light, the cells were re-suspended in fresh media and incubated for 48 hrs. MTT was added to the cells and incubated for an additional 4 hrs. Dimethylsulfoxide (100 μl) was then added to each well to dissolve the formazin crystals. The plates were read on a 96 well plate reader at an absorbance of 560 nm. The data are in replicates of 6 wells and are normalized to control cells (light, no drug). In another set of experiments, a similar procedure was followed, except, the cells were not washed before the light treatment. […] Louis, Mo.) was added to the cells and incubated for an additional 4 hrs. Dimethylsulfoxide (100 μl) was then added to each well to dissolve the formazin crystals. The plates were read on a 96 well plate reader (Miles Inc. Titertek Multiscan Plus MK II) at an absorbance of 560 nm. The data are in replicates of 6 wells and are normalized to control cells (light, no drug).

RIF tumor cells = assay: Cellular localization in RIF tumor cells with DPH counterstain; assay type: cell-based; conditions: RIF cells (FIGS. 9a and 9b)
Description: For investigating the difference in sites of localization between the photosensitizers with and without carbohydrate moieties, the fluorescence light microscopy experiments were performed in Molt-4 and RIF tumor cell lines. In a typical experiment, cells were imaged at 100× on an inverted fluorescence microscope (Carl Zeiss Inc. Axiovert 35.W.Germany) with a charged-coupled device camera (Dage-MTI, model 104722-02). Images were captured and processed by computer using Image-1 image processing software (Universal Imaging Corp., version 4.0, WestChester, Pa.). The photosensitizer fluorescence was assessed by using 530-585 nm excitation and 615 nm long-pass filter to measure emission while 338-378 nm excitation for DPH, and a 450 nm emission filter for emission (400 nm dichroic). […] In addition, […]1-(4-trimethylammonium)-6-phenyl-1,3,5-hexatriene (TMA-DPH), a hydrophobic fluorescent probe which interacts with living cells by instantaneous incorporation into plasma membrane and becomes fluorescent (Illinger, D., and Kuhry, J. G., The Kinetic Aspects of Intracellular Fluorescence Labeling with TMA-DPH Support the Maturation Model for Endocytosis in L929 Cells, The Journal of Cell Biology, 125:783-794, 1994), was added for the last 5 min of the incubation, cells were washed once with PBS and transferred to a microscope slide for imaging. […]

RIF tumors = assay: In vivo photosensitizing efficacy (tumor re-growth assay) in mice bearing RIF tumors; set-up: species or system C3H/HEJ mice; conditions: 5.0 μM/kg; for in vivo PDT efficacy (in words) / mice tumor free on day 90: no free lactose; for mice tumor free on day 90: light 24 h post-injection, 6 mice/group
Description: Both conjugated and non-conjugated photosensitizers (1-4) were evaluated for their in vivo tumor response in C3H mice implanted with RIF tumors. In brief, C3H/HEJ mice were injected intradermally with 2×10^5 RIF cells in 30 μl HBSS w/o Ca^+2 and magnesium, into the flank and allowed to grow until they were 4-5 mm in diameter. The day before tumors were treatment size, the mice were injected with 0-5 μlmoles/kg of compounds 1-4. At 24 hours post-injection the mice were anesthetized with Ketamine and Xylazine, and restrained on plastic holders, treated with laser light from an argon pumped dye laser at 700 nm for a total fluence of 135 J/cm^2 at a fluence rate of 75 mW/cm^2. The mice (6 mice/group) were checked daily, the tumors were measured using two orthogonal measurements L and W (perpendicular to L) and the volumes were calculated using the formula V=LxW ^2/2 and recorded. Mice were considered cured if there was no palpable tumor at 90 days post PDT treatment.

B16-F1 cells = assay: In vitro photosensitizing efficacy in B16-F1 cells, low Gal-1 expression (MTT); assay type: cell-based; conditions: free lactose (100 μM)
Description: For determining photosensitizing efficacy in B16-F1 and J774A.Cell were plated at 1×10^4 and 2×10^4 cells per well respectively in 96 well plates. After overnight incubation, compounds 1 and 4 at the same concentration (0-2 μM) were added. After further 3 hr incubation, cells were washed with PBS and irradiated with white light (0-4 joules). […] The cells were then incubated in complete media for 48 hrs and assayed for survival using the standard MTT assay.

## Mesopurpurin-18-N-methyl-(2′-butadiene)imide [1a]
[1]
  effect of free lactose on PDT efficacy of the photosensitizer: did not produce any change in photocytotoxic ability
RIF tumor cells
  cellular localization with DPH as a counterstain: diffuse intracellular localization
RIF tumors
  in vivo PDT efficacy with and without lactose administration: ineffective
  in vivo PDT efficacy (in words): inactive in vivo

## C=C(C=CCO[C@@H]1O[C@H](CO)[C@@H](O[C@@H]2O[C@H](CO)[C@H](O)[C@H](O)[C@H]2O)[C@H](O)[C@H]1O)CN1C(=O)c2c3nc(cc4[nH]c(cc5nc(cc6[nH]c2c(c6C)C1=O)C(CC)=C5C)c(CC)c4C)C(C)C3CCC(=O)OC (mixture of isomers) [4a, Lactose-Chlorin conjugate joined with diene linkage]
[1]; 2.0 μM, 2a, 3a compared to 1a, 4a compared to 2a and 3a
  in vitro photosensitizing efficacy (in words): better pbotosensitizer
[1]
  effect of free lactose on PDT efficacy of the photosensitizer: complete inhibition in PDT efficacy
B16-F1 cells
  PDT efficacy on addition of free lactose: almost completely inhibited
RIF tumor cells
  cellular localization with DPH as a counterstain: intense plasma membrane fluorescence
RIF tumors; free lactose 100-fold excess
  in vivo PDT efficacy, lactose injected immediately following the drug: significant decrease in PDT efficacy
RIF tumors; lactose 23 hr post-injection of the conjugate
  in vivo PDT efficacy, lactose injected 1 hour prior to light treatment: quite effective
RIF tumors
  mice tumor free on day 90: 3/6
  in vivo PDT efficacy (in words): quite effective
RIF tumors; listed as 4
  mice tumor free on day 90: Three out of six

— patent publication US6849607B2, “Galectin recognized photosensitizers for photodynamic therapy” (Health Research, Inc., priority 2001, dated 2005)
